Source: US5972893A, “Method of treating hyperprolactinemia and prolactinomas” (Cedars-Sinai Medical Center, priority 1997, dated 1999)
Positions of bridges follow the written chain, without caps; N, C: chain ends. Non-standard residues stand in square brackets, D forms with d. Residues, ends and D or L forms follow the SMILES beside them.

How the values were obtained:
human SSTR-1 = human SSTR-1 (Homo sapiens, UniProt P30872); experiment: Somatostatin receptor binding assay, hSSTR-1
human SSTR-3 = human SSTR-3 (Homo sapiens, UniProt P32745); experiment: Somatostatin receptor binding assay, hSSTR-3
[1] = test system: cells derived from prolactin-secreting pituitary adenomas; experiment: Reduction of prolactin secretion from prolactinoma cell cultures; type: cell-based, human; details: for effect on prolactin release (in words): tumor 1 adenomatous cell cultures, 10-100 nM; for effect on prolactin release (in words) / suppression of prolactin secretion: 3 hours; for response of cells from the four large male tumors (in words): tumors 1, 2, 3 and 4 (macroprolactinomas of male patients); for suppression of prolactin release / effect on prolactin production (in words): large tumor 4 cell cultures; for suppression of prolactin secretion: tumor 1 cell cultures

human SSTR-3, sequence (P32745 whole entry): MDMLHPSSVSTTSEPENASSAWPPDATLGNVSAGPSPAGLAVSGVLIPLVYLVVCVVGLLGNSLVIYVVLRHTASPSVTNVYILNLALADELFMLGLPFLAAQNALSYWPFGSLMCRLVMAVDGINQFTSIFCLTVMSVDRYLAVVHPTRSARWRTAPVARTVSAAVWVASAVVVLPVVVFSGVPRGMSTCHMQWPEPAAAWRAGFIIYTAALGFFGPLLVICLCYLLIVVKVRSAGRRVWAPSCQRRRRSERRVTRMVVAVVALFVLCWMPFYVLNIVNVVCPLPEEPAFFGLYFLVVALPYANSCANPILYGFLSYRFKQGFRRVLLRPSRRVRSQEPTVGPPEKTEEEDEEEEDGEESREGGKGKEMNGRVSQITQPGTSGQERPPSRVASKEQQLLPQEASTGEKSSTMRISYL
human SSTR-1, sequence (P30872 whole entry): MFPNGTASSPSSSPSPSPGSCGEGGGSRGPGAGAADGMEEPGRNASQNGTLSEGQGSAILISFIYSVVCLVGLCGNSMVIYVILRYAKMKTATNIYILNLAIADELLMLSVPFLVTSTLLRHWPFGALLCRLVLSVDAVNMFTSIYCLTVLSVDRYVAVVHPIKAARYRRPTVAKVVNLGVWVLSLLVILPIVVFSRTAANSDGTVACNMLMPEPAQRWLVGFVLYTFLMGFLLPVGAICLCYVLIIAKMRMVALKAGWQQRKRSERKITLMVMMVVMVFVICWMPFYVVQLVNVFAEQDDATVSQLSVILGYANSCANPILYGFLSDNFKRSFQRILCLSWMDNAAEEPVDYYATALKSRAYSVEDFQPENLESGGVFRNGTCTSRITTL

| SMILES | effect on prolactin release (in words) [1] | response of cells from the four large male tumors (in words) [1] | other results |
| --- | --- | --- | --- |
| CC(C)[C@@H]1NC(=O)[C@H](CCCCN)NC(=O)[C@@H](Cc2c[nH]c3ccccc23)NC(=O)[C@H](Cc2ccc(O)cc2)NC(=O)[C@@H](NC(=O)[C@H](N)Cc2ccc3ccccc3c2)CSSC[C@@H](C(=O)N[C@H](C(N)=O)[C@@H](C)O)NC1=O [Lanreotide] | did not affect prolactin release | failed to respond | Ki (human SSTR-1): 2410 nM; Ki (human SSTR-3): 97.9 nM |
| C[C@@H](O)[C@@H]1NC(=O)[C@H](CCCCN)NC(=O)[C@@H](Cc2c[nH]c3ccccc23)NC(=O)[C@H](Cc2ccccc2)NC(=O)[C@H](Cc2ccccc2)NC(=O)[C@@H](N)CSSC[C@@H](C(N)=O)NC(=O)[C@H](Cc2ccccc2)NC1=O [BIM-23268, H-Cys-Phe-Phe-D-Trp-Lys-Thr-Phe-Cys-NH2] (H-CFF[dW]KTFC-NH2; disulfide 1-8) |  | suppression of prolactin secretion | suppression of prolactin ([1]; large tumor 3 cell cultures, 10 nM and 100 nM, dose dependent, p<0.05): up to 29%; suppression of prolactin release ([1]; p<0.05): more than 30%; suppression of prolactin secretion ([1]; 10 nM, p<0.05): 36%; inhibition of prolactin release versus controls ([1]; tumor 2 cell cultures, 10 nM, p<0.0005): 38% |
| CC[C@@H]1NC(=O)[C@H](CCCCN)NC(=O)[C@@H](Cc2c[nH]c3ccccc23)NC(=O)[C@H](Cc2ccc(O)cc2)NC(=O)[C@@H](NC(=O)[C@H](N)Cc2ccccc2)CSSC[C@@H](C(=O)N[C@H](C(N)=O)[C@@H](C)O)NC1=O [BIM-23023] | did not affect prolactin release |  |  |
| C[C@@H](O)[C@H](NC(=O)[C@H](Cc1ccccc1)NC(=O)[C@@H](NC(=O)[C@H](CCCCN)NC(=O)[C@@H](Cc1c[nH]c2ccccc12)NC(=O)[C@H](Cc1ccccc1)NC(=O)[C@H](Cc1ccccc1)NC(=O)[C@H](N)Cc1ccccc1)[C@@H](C)O)C(N)=O [BIM-23052, H-D-Phe-Phe-Phe-D-Trp-Lys-Thr-Phe-Thr-NH2] (H-[dF]FF[dW]KTFT-NH2) |  | suppression of prolactin secretion | suppression of prolactin release ([1]; p<0.05): more than 30%; suppression of prolactin secretion ([1]; 10 nM, p<0.05): 33% |
| CC[C@@H]1NC(=O)[C@H](CCCCN)NC(=O)[C@@H](Cc2c[nH]c3ccccc23)NC(=O)[C@H](Cc2ccc(O)cc2)NC(=O)[C@@H](NC(=O)[C@@H](Cc2ccccc2)NC(=O)CN2CCN(CCO)CC2)CSSC[C@@H](C(=O)N[C@H](C(N)=O)[C@@H](C)O)NC1=O [BIM-23190] | did not affect prolactin release | failed to respond | effect on prolactin production (in words) [1]: modestly stimulated prolactin production |
| CC[C@@H]1NC(=O)[C@H](CCCCN)NC(=O)[C@@H](Cc2c[nH]c3ccccc23)NC(=O)[C@H](Cc2ccc(O)cc2)NC(=O)[C@@H](NC(=O)[C@@H](Cc2ccccc2)NS(=O)(=O)CCN2CCN(CCO)CC2)CSSC[C@@H](C(=O)N[C@H](C(N)=O)[C@@H](C)O)NC1=O [BIM-23197] | did not affect prolactin release | failed to respond | effect on prolactin production (in words) [1]: modestly stimulated prolactin production |
| C[C@@H](O)[C@@H]1NC(=O)[C@H](CCCCN)NC(=O)[C@@H](Cc2c[nH]c3ccccc23)NC(=O)[C@H](Cc2ccccc2)NC(=O)[C@@H](NC(=O)[C@H](N)Cc2ccccc2)CSSC[C@@H](C(=O)N[C@H](CO)[C@@H](C)O)NC1=O [Octreotide] |  | failed to respond |  |
